Series [1] deals with T1, Bcl-2-like protein 11/Bcl-2-related protein A1 (Homo sapiens, UniProt O43521+Q16548). Put plainly: Inhibition of Bfl-1/Bim (unknown origin) incubated for 30 mins by TR-FRET assay. Format: protein-complex assay.
Series [2] deals with T1, Bcl-2-like protein 11/Bcl-2-related protein A1. In words: Inhibition of Bfl-1/Bim (unknown origin) by fluorescence polarization assay. Format: protein-complex assay.
Series [3] can be described thus: Lipophilicity, logP of compound. Format: physicochemical. As to conditions: octanol/water.
The target of series [4] is T1, Bcl-2-like protein 11/Bcl-2-related protein A1. Put plainly: Inhibition of Bfl-1/Bim (unknown origin) assessed as inhibition constant by fluorescence polarization assay. Format: protein-complex assay. For orientation: Polarisation of emitted light reports the rotation of a fluorescent probe.
In series [5] the target is T2, Bcl-2-related protein A1 (Homo sapiens, UniProt Q16548).
T2 sequence (Q16548 whole entry): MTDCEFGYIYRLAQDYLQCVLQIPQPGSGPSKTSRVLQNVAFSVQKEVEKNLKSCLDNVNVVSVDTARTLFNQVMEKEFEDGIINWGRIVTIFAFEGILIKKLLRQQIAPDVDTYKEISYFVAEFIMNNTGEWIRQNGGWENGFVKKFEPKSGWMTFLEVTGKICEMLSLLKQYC
In words: Inhibition of Bfl-1 (unknown origin) by fluorescence polarization assay.

The target of series [6] is T3, Apoptosis regulator Bcl-2 (Homo sapiens, UniProt P10415). Put plainly: Displacement of fluorescein tagged BID BH3 peptide from GST-tagged recombinant Bcl-2 (unknown origin) by fluorescence polarization-based competitive binding assay.
For series [7], the target named is Induced myeloid leukemia cell differentiation protein Mcl-1 (Homo sapiens) (UniProt Q07820). Put plainly: Displacement of fluorescein tagged BID BH3 peptide from GST-tagged recombinant Mcl-1 (unknown origin) by fluorescence polarization-based competitive binding assay.
Series [8] has as its target T3, Apoptosis regulator Bcl-2. In words: Inhibition of Bcl-2 (unknown origin) by fluorescence polarization assay.
In series [9] the target is T2, Bcl-2-related protein A1. In words: Displacement of fluorescent-labeled BID-BH3 peptide from His-tagged BFL-1 (unknown origin).

The term IC50 denotes the point on the concentration scale where inhibition reaches its midpoint. Lower therefore signals higher potency. For orientation: logP means a log measure of how a compound divides between an organic and an aqueous phase. Usually Ki stands for the equilibrium dissociation constant of an inhibitor or competing ligand from its target. One may read the EC50 as the concentration at which the effect is half-maximal. A lower EC50 goes with greater potency.

T1 sequence (O43521 whole entry, one chain of several): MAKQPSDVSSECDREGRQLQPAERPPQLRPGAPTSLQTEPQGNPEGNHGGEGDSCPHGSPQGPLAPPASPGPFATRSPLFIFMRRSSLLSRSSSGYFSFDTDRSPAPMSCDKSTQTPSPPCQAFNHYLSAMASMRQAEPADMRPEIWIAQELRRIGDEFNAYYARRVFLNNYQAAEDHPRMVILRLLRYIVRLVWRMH
T3 sequence (P10415 whole entry): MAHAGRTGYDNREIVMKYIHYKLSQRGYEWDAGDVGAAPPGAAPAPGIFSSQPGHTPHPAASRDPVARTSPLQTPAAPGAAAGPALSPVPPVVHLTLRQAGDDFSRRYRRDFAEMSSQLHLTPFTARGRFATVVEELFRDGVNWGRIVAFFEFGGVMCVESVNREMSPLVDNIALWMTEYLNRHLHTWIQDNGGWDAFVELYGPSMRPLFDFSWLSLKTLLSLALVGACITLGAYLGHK
Sequence of Induced myeloid leukemia cell differentiation protein Mcl-1 (Homo sapiens) (Q07820 whole entry): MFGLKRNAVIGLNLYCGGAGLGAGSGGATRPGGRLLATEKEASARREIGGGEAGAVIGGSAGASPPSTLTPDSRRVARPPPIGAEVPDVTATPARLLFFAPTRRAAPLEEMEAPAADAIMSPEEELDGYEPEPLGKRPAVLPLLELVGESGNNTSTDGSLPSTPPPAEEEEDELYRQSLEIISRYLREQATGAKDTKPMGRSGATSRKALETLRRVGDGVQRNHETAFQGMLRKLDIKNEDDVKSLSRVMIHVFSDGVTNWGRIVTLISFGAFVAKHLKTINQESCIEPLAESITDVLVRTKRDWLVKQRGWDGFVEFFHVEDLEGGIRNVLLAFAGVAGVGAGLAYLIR

For the compound `COc1ccc(C(c2c(-c3ccccc3)n(O)c3ccccc23)N2CCN(C)CC2)cc1` (stereo not given), the IC50 in series [1] turned out to be 1.4 µM; in series [2], 0.8 µM. The compound also displayed a logP in series [3] of 4. Besides, in series [4], the Ki amounted to 0.4 µM.
In turn, `O=C1NC(=S)N(c2cccc(Br)c2)C(=O)/C1=C/C=C/c1ccccc1` showed an IC50 in series [5] of 1.6 µM.
Regarding `CC(C)=CCC[C@]1(C)C=Cc2c(O)c3c(c(CC=C(C)C)c2O1)O[C@]12C(=C[C@@H]4C[C@H]1C(C)(C)O[C@@]2(C/C=C(/C)C(=O)O)C4=O)C3=O` [GAMBOGIC ACID], the IC5 is 1.21 µM in series [6] and 0.79 µM in series [7]. The compound further displayed an IC50 in [8] of 0.122 µM.
Compound `CCOc1ccc(N2C(=O)/C(=C/C=C/c3ccccc3)C(=O)NC2=S)cc1` had an IC50 in series [5] of 1.3 µM.
As to `CC(=O)N[C@@H](Cc1c[nH]c2ccccc12)C(=O)NCCSSCCN(C)C`, in series [9], the EC50 came out at 0.023 µM.
In turn, `CC1=C(C2=C(C)C(=O)c3c(cc(O)c(O)c3Cc3ccccc3)C2=O)C(=O)c2cc(O)c(O)c(Cc3ccccc3)c2C1=O` showed an IC50 in series [8] of 1.3 µM.
In the case of `CSc1ccc(C(Nc2ccccn2)c2c(C)[nH]c3ccccc23)cc1` (stereo not given), the values for the 50% inhibitory concentration (IC50) in series [1] and in [2] were 2.5 µM and 6.3 µM, respectively. Moreover, the logP in [3] was found to be 4. Also, the Ki in series [4] was 2.9 µM.

Source of the values: ChEMBL document CHEMBL5241079, “Inhibitors of BCL2A1/Bfl-1 protein: Potential stock in cancer therapy” (Eur J Med Chem, 2021).
